Assay results taken from ChEMBL document CHEMBL1158539, “Synthesis and biological activity of 2H-quinolizin-2-one based p38alpha MAP kinase inhibitors” (Bioorg Med Chem Lett, 2010).
pEC50, pIC50, pKi: −log10 of the molar value. Activity calls are given as the source filed them. The calls are words filed in the database; no cut-off is given here.

Key:
[1] = target: Voltage-gated inwardly rectifying potassium channel KCNH2 (Homo sapiens, UniProt Q12809)
Description: Displacement of labeled MK-499 from human ERG in HEK293 cells

[2] = Lipophilicity, log D of the compound; format: physicochemical; conditions: octanol/water
[3] = target: Mitogen-activated protein kinase 14 (Mus musculus, UniProt P47811)
Mitogen-activated protein kinase 14, sequence (P47811 whole entry): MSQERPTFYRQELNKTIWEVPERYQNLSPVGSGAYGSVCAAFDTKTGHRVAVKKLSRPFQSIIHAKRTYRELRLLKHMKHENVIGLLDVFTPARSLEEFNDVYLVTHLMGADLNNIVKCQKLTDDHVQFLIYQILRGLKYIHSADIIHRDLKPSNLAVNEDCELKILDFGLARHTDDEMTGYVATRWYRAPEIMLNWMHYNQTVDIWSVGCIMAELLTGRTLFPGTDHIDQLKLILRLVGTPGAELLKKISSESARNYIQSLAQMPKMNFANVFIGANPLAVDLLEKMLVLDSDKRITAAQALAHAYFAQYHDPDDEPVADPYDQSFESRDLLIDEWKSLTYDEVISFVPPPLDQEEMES
Description: Inhibition of mouse p38alpha after 3 hrs by SPA method

[4] = Displacement of labeled diltiazem from calcium channel in guinea-pig hind limb skeletal muscle homogenates
[5] = target: T1, Nuclear receptor subfamily 1 group I member 2 (Homo sapiens, UniProt O75469); experiment: Activation of PXR
T1 sequence (O75469 whole entry): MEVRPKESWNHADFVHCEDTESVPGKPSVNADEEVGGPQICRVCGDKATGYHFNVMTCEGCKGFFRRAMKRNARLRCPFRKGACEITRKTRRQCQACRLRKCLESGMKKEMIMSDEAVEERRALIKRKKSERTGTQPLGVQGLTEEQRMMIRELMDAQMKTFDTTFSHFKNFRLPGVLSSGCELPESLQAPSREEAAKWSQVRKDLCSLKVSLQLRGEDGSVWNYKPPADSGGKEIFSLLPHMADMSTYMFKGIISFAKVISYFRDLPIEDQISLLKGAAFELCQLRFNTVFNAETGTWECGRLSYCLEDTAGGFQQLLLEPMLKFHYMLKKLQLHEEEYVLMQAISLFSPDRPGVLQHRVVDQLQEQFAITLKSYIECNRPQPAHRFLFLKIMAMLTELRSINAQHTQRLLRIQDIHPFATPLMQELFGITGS

THP-1 = experiment: cells; conditions: Homo sapiens, THP-1, 4 h
Description: Inhibition of LPS-induced TNFalpha production in human THP1 cells after 4 hrs by ELISA

Blood [6] = experiment: tissue or blood; conditions: Homo sapiens
Description: (§1) Inhibition of LPS-induced TNFalpha production in human whole blood

Blood [7] = system: Blood
Description: as §1

[8] = Half life in monkey at 0.25 mg/kg, iv and 2 mg/kg, po; format: ADME, organism-based, Macaca mulatta; conditions: rhesus monkey, in vivo
Rattus norvegicus [9] = experiment: Antiarthritic activity in rat assessed as reduction of LPS-induced TNFalpha level at 0.03 mg/kg after 4 hrs; format: functional; parameters: scale not given: the % may be the effect or the level left
[10] = AUC in monkey at 0.25 mg/kg, iv and 2 mg/kg, po; format: ADME, organism-based, Macaca mulatta; conditions: rhesus monkey, plasma
[11] = Clearance in dog at 0.25 mg/kg, iv and 2 mg/kg, po; format: ADME, organism-based, Canis lupus familiaris; conditions: in vivo
[12] = Half life in dog at 0.25 mg/kg, iv and 2 mg/kg, po; format: ADME, organism-based, Canis lupus familiaris; conditions: in vivo
Rattus norvegicus [13] = experiment: Antiarthritic activity in rat assessed as reduction of LPS-induced TNFalpha level at 3 mg/kg after 24 hrs; format: functional, organism-based; parameters: dose 3 mg/kg
[14] = Clearance in rat at 1 mg/kg, iv and 2 mg/kg, po; format: ADME, organism-based; conditions: in vivo
Rattus norvegicus [15] = experiment: Antiarthritic activity in rat assessed as reduction of LPS-induced TNFalpha level at 30 mg/kg after 24 hrs; format: functional, organism-based; parameters: dose 30 mg/kg
[16] = AUC in dog at 0.25 mg/kg, iv and 2 mg/kg, po; format: ADME, organism-based, Canis lupus familiaris; conditions: plasma
Rattus norvegicus [17] = experiment: Antiarthritic activity in rat assessed as reduction of LPS-induced TNFalpha level at 3 mg/kg after 4 hrs; format: functional; parameters: scale not given: the % may be the effect or the level left
[18] = Oral bioavailability in dog at 2 mg/kg; format: ADME, organism-based, Canis lupus familiaris; conditions: in vivo
[19] = AUC in rat at 1 mg/kg, iv and 2 mg/kg, po; format: ADME, organism-based; conditions: plasma
Rattus norvegicus [20] = experiment: Antiarthritic activity in rat assessed as reduction of LPS-induced TNFalpha level at 1 mg/kg after 4 hrs; format: functional; parameters: scale not given: the % may be the effect or the level left
[21] = Oral bioavailability in monkey at 2 mg/kg; format: ADME, organism-based, Macaca mulatta; conditions: rhesus monkey, in vivo
Rattus norvegicus [22] = experiment: Antiarthritic activity in rat assessed as reduction of LPS-induced TNFalpha level at 10 mg/kg after 24 hrs; format: functional, organism-based; parameters: dose 10 mg/kg
[23] = Clearance in monkey at 0.25 mg/kg, iv and 2 mg/kg, po; format: ADME, organism-based, Macaca mulatta; conditions: rhesus monkey, in vivo
[24] = Oral bioavailability in rat at 2 mg/kg; format: ADME, organism-based; conditions: in vivo
[25] = Half life in rat at 1 mg/kg, iv and 2 mg/kg, po; format: ADME, organism-based; conditions: in vivo
Rattus norvegicus [26] = experiment: Antiarthritic activity in rat assessed as reduction of LPS-induced TNFalpha level at 1 mg/kg after 24 hrs; format: functional, organism-based; parameters: dose 1 mg/kg
[27] = Half life in monkey; format: ADME, organism-based, Macaca mulatta; conditions: rhesus monkey, in vivo
[28] = Half life in dog; format: ADME, organism-based, Canis lupus familiaris; conditions: in vivo

Voltage-gated inwardly rectifying potassium channel KCNH2, sequence (Q12809 whole entry): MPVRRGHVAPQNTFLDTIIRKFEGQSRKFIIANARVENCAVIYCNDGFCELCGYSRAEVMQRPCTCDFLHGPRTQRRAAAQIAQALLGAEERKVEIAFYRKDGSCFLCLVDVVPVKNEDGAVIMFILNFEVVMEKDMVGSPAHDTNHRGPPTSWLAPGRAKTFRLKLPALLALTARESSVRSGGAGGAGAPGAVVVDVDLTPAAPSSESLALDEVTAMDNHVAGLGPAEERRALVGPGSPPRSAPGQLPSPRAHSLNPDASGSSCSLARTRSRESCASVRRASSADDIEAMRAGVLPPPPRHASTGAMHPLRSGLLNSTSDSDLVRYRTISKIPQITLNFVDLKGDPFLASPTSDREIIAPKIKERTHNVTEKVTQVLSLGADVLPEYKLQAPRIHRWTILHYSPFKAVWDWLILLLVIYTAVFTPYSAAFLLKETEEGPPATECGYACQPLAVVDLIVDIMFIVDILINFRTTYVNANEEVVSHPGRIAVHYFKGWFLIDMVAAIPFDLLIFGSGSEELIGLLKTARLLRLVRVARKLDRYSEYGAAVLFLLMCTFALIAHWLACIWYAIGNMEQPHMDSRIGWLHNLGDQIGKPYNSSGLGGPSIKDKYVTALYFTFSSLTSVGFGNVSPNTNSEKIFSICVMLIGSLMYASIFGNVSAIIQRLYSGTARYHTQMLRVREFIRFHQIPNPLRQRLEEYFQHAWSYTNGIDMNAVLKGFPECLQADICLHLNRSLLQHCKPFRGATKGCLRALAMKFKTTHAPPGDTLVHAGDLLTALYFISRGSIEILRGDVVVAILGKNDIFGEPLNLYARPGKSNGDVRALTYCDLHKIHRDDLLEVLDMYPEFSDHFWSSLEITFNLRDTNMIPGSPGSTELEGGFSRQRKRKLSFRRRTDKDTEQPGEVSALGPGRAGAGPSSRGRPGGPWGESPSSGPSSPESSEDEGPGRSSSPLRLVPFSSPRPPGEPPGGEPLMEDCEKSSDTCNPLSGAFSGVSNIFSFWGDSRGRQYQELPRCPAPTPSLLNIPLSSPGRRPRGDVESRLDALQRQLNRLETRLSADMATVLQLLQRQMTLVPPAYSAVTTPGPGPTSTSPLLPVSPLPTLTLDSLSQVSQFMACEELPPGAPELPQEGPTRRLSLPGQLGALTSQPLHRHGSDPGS

SMILES: Nc1cc2c(ccc(=O)n2-c2c(F)cccc2F)c(-c2ccc(F)cc2F)n1
- pKi [1]: 5.29
- logD [2]: 2.7
- pIC50 [3]: 9.22
- pIC50 [4]: 5.34

SMILES: O=c1ccn2c(-c3ccc(F)cc3F)cccc2c1-c1c(F)cc(-c2nnco2)cc1F
- pIC50 [3]: 8.28
- pEC50 [5]: < 4.52
- pIC50 (THP-1): 6.58
- pIC50 (Blood [6]): 6.11

SMILES: COC(=O)c1cc(F)c(-c2c(=O)ccn3c(-c4ccc(F)cc4F)cccc23)c(F)c1
- pIC50 [3]: 8.82
- pEC50 [5]: < 4.52
- IC50 (Blood [7]): Not Active
- pIC50 (THP-1): 5.19

SMILES: N#Cc1cc(F)c(-c2c(=O)ccn3c(-c4ccc(F)cc4F)cccc23)c(F)c1
- pIC50 [3]: 8.82
- pEC50 [5]: < 4.52
- IC50 (Blood [7]): Not Active
- pIC50 (THP-1): 5.19

SMILES: O=C1NCc2c(-c3ccc(F)cc3F)cc(N3CCNCC3)cc2N1c1c(Cl)cccc1Cl
- logD [2]: 4.2

SMILES: Cc1nnc(-c2ccc(F)c(-c3c(=O)ccn4c(-c5ccc(F)cc5F)cccc34)c2)o1
- half-life [8]: 9.5 h
- Activity (Rattus norvegicus [9]): 50%
- AUC [10]: 23.9 µM·h
- clearance [11]: 0.88 mL/min/kg
- half-life [12]: 12 h
- Activity (Rattus norvegicus [13]): Active
- clearance [14]: 2.4 mL/min/kg
- Activity (Rattus norvegicus [15]): Active
- AUC [16]: 58.6 µM·h
- Activity (Rattus norvegicus [17]): >90%
- bioavailability [18]: 66%
- AUC [19]: 21.7 µM·h
- Activity (Rattus norvegicus [20]): >90%
- bioavailability [21]: 55%
- Activity (Rattus norvegicus [22]): Active
- clearance [23]: 0.9 mL/min/kg
- bioavailability [24]: 68%
- half-life [25]: 1.4 h
- Activity (Rattus norvegicus [26]): Active

SMILES: O=c1ccn2c(-c3ccc(F)cc3F)cccc2c1-c1c(F)cccc1F
- half-life [27]: > 100 h
- half-life [28]: 20 h
- logD [2]: 2.5

SMILES: O=c1ccn2c(-c3ccc(F)cc3F)cccc2c1-c1cc(-c2nnco2)ccc1F
- half-life [8]: 5.9 h
- pKi [1]: < 4.70
- AUC [10]: 5.1 µM·h
- clearance [11]: 0.49 mL/min/kg
- half-life [12]: 30.4 h
- clearance [14]: 3.1 mL/min/kg
- AUC [16]: 49.3 µM·h
- pIC50 [3]: 7.89
- bioavailability [18]: 45%
- AUC [19]: 25.6 µM·h
- bioavailability [21]: 47%
- pIC50 (THP-1): 7.60
- clearance [23]: 3.6 mL/min/kg
- bioavailability [24]: 100%
- pIC50 (Blood [6]): 7.34
- half-life [25]: 1.8 h
- pIC50 [4]: < 4.52

SMILES: Nc1nnc(-c2cc(F)c(-c3c(=O)ccn4c(-c5ccc(F)cc5F)cccc34)c(F)c2)o1
- pIC50 [3]: 8.17
- pEC50 [5]: < 4.52
- pIC50 (THP-1): 6.57
- pIC50 (Blood [6]): 5.80

SMILES: NC(=O)c1cc(F)c(-c2c(=O)ccn3c(-c4ccc(F)cc4F)cccc23)c(F)c1
- pIC50 [3]: 7.70
- pEC50 [5]: < 4.52
- pIC50 (THP-1): 6.74
- pIC50 (Blood [6]): 6.01

SMILES: Cc1noc(-c2cc(F)c(-c3c(=O)ccn4c(-c5ccc(F)cc5F)cccc34)c(F)c2)n1
- pIC50 [3]: 8.06
- pEC50 [5]: < 4.52
- pIC50 (THP-1): 6.37
- pIC50 (Blood [6]): 6.16
